Among the data in US20120207729A1, “SUBSTITUTED BENZOAZOLE PDE4 INHIBITORS FOR TREATING PULMONARY AND CARDIOVASCULAR DISORDERS” (DECODE GENETICS EHF, priority 2007, published 2012) are IC50 values, retold here.

One may read the IC50 as the point on the concentration scale where inhibition reaches its midpoint.

One assay concerns the target human PDE4B (Homo sapiens, UniProt Q07343). The assay can be described thus: In-vitro real-time enzyme-coupled spectrophotometric assay for PDE4 enzymes. Type of assay: biochemical. The conditions noted are these: NADH-coupled assay, absorbance at 340 nm, read-out: IC50 for human PDE4B isozyme. How it is done:
(§1) In-vitro assay for PDE4 enzymes. The in-vitro activity of PDE4 enzymes and the in-vitro potency of therapeutic agents described in the present invention was measured using a real-time, enzyme-coupled spectrophotometric assay. By using three different coupling enzymes, the product of the PDE4 reaction is coupled to the oxidation of the reduced form β-nicotinamide adenine dinucleotide (NADH), which dissipation can be monitored spectrophotmetrically at […].
(§2) Assay description. Buffer A containing 50 mM Tris, pH 8.0, 16 mM MgCl2 and 80 mM KCl is prepared and stored at room temperature. Buffer B containing 50 mM Tris, pH 8.0 is prepared and stored at room temperature. Stock solutions of the following reagents are prepared in Buffer B and stored at −20° C.: Adenosine-5′-triphosphate (ATP), cyclic adenosine-5′-monophosphate (cAMP), phosphoenolpyruvate (PEP) and NADH. An assay mix is prepared by mixing Buffer A, […] (TCEP), ATP, PEP, NADH, myokinase (MK), pyruvate kinase (PK), lactate dehydroganese (LDH) and PDE4 to a final volume of 20 mL, which is enough for a single 96-well assay plate. Assay mix (180 μL) and test article (10 μL) in 1:1 DMSO/H2O mixture is pre-incubated at room temperature for 10 min. The enzymatic reaction is initiated by addition of cAMP (10 μL). Final concentration of all components in the assay (200 μL/well) are as follows: 10 mM MgCl2, 50 mM KCl, 5 mM TCEP, 2.5% DMSO, 0.4 mM NADH, 1 mM PEP, 0.04 mM ATP, 5 units MK, 1 unit PK, 1 unit LDH and appropriate amount of PDE4. Reaction progress curves are monitored in a plate reader capable of measuring light absorbance at 340 nm. A decrease in light absorbance at 340 nm is due to oxidation of NADH. Positive controls containing no test article and negative controls containing no test article and no cAMP are included on every assay plate. Reaction rates are determined from the slopes of the linear portions of the progress curves. All data is percent normalized with respect to controls and presented as percent inhibition. Compounds BB-01, BB-02, BB-03, BB-04, BB-05, BB-08, BB-09 gave IC50<5 uM for human PDE4D and PDE4B isozymes.

A further assay addresses human PDE4D (Homo sapiens, UniProt Q08499). The description is as above. The settings on record: NADH-coupled assay, absorbance at 340 nm, read-out: IC50 for human PDE4D isozyme. It is filed as biochemical. How it is done:
as §1, §2

human PDE4D, sequence (Q08499 whole entry): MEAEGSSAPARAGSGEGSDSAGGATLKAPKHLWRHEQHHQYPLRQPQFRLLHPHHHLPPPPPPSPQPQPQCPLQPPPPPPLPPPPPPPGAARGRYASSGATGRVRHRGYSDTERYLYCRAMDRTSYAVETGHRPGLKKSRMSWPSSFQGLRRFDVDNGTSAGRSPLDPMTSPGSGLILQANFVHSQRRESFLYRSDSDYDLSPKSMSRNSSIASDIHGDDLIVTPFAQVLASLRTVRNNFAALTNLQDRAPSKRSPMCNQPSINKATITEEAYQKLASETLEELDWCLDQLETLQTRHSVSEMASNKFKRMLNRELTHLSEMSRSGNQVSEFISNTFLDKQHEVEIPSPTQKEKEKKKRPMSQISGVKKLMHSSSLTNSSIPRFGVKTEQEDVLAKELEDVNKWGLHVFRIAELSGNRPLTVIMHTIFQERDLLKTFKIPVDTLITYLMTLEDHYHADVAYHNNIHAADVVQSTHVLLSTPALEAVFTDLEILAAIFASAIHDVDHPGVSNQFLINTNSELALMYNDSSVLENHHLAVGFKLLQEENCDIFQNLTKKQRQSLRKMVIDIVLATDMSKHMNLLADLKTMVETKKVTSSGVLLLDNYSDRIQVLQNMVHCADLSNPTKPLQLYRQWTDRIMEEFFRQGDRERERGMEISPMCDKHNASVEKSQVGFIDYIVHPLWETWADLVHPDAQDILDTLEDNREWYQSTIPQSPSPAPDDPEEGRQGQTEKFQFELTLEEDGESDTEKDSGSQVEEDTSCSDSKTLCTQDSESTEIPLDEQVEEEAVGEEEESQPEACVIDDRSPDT
human PDE4B, sequence (Q07343 whole entry): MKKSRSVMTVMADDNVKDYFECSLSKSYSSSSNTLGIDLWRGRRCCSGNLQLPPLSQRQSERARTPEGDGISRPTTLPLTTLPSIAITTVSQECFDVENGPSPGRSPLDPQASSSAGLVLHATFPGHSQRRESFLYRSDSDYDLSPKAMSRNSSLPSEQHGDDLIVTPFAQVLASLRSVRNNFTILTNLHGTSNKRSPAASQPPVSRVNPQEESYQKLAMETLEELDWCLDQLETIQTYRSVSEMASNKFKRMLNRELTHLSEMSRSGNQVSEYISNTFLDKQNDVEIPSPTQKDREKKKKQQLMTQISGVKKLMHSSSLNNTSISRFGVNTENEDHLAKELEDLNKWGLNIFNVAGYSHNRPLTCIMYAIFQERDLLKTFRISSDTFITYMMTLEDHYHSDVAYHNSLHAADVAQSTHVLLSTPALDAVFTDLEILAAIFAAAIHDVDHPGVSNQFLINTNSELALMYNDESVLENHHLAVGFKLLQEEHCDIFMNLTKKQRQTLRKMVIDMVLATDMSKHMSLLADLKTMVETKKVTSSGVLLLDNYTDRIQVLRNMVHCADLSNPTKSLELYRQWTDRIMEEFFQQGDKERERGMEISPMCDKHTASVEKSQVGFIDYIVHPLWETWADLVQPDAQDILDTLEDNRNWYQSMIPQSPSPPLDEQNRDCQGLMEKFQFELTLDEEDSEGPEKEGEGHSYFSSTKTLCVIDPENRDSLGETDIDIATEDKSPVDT

As to `O=C(O)[C@@H]1CCCN1c1ccc(Cc2cc3scnc3c(-c3cccc(Cl)c3)c2F)cn1` [BB-03, (S)-1-{5-[4-(3-chloro-phenyl)-5-fluoro-benzothiazol-6-ylmethyl]-pyridin-2-yl}-pyrrolidine-2-carboxylic acid], the IC50 at human PDE4B and on human PDE4D was less than 5 µM throughout.

Turning to `O=C(O)C1CCN1c1ccc(Cc2cc3scnc3c(-c3cccc(Cl)c3)c2F)cn1` (racemic) [BB-01, 1-{5-[4-(3-chloro-phenyl)-5-fluorobenzothiazol-6-ylmethyl]-pyridin-2-yl}-azetidine-2-carboxylic acid], the IC50 at human PDE4B and on human PDE4D was less than 5 µM throughout.

As to `Cc1nc2c(-c3cccc(Cl)c3)cc(Cc3ccc(N4CC[C@@H]4C(=O)O)nc3)cc2s1` [BB-09, (R)-1-{5-[4-(3-chloro-phenyl)-2-methyl-benzothiazol-6-ylmethyl]-pyridin-2-yl}-azetidine-2-carboxylic acid], the IC50 at human PDE4B and at human PDE4D was less than 5 µM each time.

Consider `O=C(O)[C@H]1CCN1c1ccc(Cc2cc3scnc3c(-c3cccc(Cl)c3)c2F)cn1` [BB-05, (R)-1-{5-[4-(3-chloro-phenyl)-5-fluoro-benzothiazol-6-ylmethyl]-pyridin-2-yl}-azetidine-2-carboxylic acid], for which the IC50 on human PDE4B and on human PDE4D was less than 5 µM in each case.

With `Cc1nc2c(-c3cccc(Cl)c3)cc(Cc3ccc(N4CC[C@H]4C(=O)O)nc3)cc2s1` [BB-08, (S)-1-{5-[4-(3-chloro-phenyl)-2-methyl-benzothiazol-6-ylmethyl]-pyridin-2-yl}-azetidine-2-carboxylic acid], the IC50 on human PDE4B and on human PDE4D was less than 5 µM each time.

Take `O=C(O)[C@@H]1CCN1c1ccc(Cc2cc3scnc3c(-c3cccc(Cl)c3)c2F)cn1` [BB-04, (S)-1-{5-[4-(3-chloro-phenyl)-5-fluoro-benzothiazol-6-ylmethyl]-pyridin-2-yl}-azetidine-2-carboxylic acid]: the IC50 on human PDE4B and at human PDE4D was less than 5 µM throughout.
